Assay results: ChEMBL document CHEMBL1201862, “PubChem BioAssay data set” (2004)
Active and inactive are the calls of the source.

How the values were obtained:
[1] = Luminescence Cell-Based Dose Retest to Confirm Inhibitors of Cancer Stem Cells. [Related pubchem assays (depositor defined):AID2717, AID2721]; type: functional; details: Homo sapiens
[2] = target: Nucleotide-binding oligomerization domain-containing protein 2 (Homo sapiens, UniProt Q9HC29); assay: NOD2 signaling inhibitors, cell-based, luminescence, uHTS, HEK293 (AID 1566); type: functional
Nucleotide-binding oligomerization domain-containing protein 2, sequence (Q9HC29 whole entry, the tested form may be a part): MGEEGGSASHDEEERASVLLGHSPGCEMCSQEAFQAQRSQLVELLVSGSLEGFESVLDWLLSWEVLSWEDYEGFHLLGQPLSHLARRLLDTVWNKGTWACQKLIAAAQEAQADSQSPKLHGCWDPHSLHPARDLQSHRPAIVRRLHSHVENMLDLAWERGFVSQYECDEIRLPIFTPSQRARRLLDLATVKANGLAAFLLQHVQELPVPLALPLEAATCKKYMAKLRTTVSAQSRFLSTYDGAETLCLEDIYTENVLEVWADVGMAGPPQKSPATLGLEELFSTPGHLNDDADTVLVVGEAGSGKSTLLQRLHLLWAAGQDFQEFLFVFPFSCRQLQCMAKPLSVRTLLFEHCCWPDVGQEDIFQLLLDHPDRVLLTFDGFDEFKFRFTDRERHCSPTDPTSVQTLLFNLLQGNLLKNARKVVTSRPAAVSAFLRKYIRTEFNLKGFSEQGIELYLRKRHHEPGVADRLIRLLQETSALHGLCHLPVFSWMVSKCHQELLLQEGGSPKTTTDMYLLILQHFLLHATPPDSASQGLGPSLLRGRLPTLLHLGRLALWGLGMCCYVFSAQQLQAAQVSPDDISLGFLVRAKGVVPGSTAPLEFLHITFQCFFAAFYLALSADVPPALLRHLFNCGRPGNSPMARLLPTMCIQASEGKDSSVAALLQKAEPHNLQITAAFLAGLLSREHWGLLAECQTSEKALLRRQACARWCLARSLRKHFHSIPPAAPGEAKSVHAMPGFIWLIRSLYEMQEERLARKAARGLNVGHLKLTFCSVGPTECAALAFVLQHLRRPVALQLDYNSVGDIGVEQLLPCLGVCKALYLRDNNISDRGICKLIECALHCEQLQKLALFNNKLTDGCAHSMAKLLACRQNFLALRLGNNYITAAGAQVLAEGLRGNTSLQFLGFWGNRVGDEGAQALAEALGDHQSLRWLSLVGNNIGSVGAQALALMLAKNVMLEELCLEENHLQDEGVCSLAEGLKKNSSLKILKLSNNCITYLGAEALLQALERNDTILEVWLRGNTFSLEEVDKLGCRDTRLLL

HEK293 [3] = assay: cells; type: functional, cell-based; details: Homo sapiens
HEK293 [4] = assay: cells; type: functional, cell-based; details: Homo sapiens; remark: listed apart in the source
HEK293 [5] = assay: NOD2 signaling inhibitors in MDP-stimulated cells, cell-based, uHTS, luminescence (AID 2001); type: functional; details: Homo sapiens
HEK293 [6] = assay: cells; type: functional, cell-based; details: Homo sapiens; remark: listed apart in the source
HEK293 [7] = assay: NOD1 signaling inhibitors, primary screen, cell-based, luminescence, uHTS (AID 1578); type: functional; details: Homo sapiens
[8] = target: T1, Microphthalmia-associated transcription factor (Homo sapiens, UniProt O75030); assay: TRPM1 promoter luciferase signal decrease, dose response, MITF inhibitor project, cell-based, SK-MEL-5, cherry-picked, set 3 (AID 493073); type: functional
T1 sequence (O75030 whole entry): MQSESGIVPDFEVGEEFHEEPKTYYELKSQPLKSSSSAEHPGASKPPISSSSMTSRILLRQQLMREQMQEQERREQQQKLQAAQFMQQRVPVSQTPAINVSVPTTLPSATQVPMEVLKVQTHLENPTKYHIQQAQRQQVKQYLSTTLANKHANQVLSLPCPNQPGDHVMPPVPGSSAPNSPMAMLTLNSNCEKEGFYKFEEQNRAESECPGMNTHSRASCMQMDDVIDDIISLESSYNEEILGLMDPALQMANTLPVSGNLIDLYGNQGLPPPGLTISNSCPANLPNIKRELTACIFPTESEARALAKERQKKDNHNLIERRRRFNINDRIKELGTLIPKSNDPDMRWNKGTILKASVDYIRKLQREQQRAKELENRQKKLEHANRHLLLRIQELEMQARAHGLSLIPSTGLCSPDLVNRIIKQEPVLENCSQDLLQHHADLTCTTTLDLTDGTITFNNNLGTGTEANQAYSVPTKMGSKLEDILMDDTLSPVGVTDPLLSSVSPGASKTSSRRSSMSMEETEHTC

H9c2 = assay: cells; type: functional, cell-based; details: Rattus norvegicus, H9c2, Myocardium;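 further: confirmatory concentration-response retest of ultra-high-throughput screening hits for modulation of myocardial damage; cell death induced by hydrogen peroxide oxidative stress; compound pretreatment for 60 min then peroxide exposure for 2 h; potency is for protecting the cells against peroxide damage rather than for killing them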
[9] = target: T2, Short transient receptor potential channel 4 (Mus musculus, UniProt Q9QUQ5); assay: mouse TRPC4 channel activators, dose response, cell-based, HEK293 TRPC4/mu-opioid, Fluo-4 calcium (AID 434937); type: functional
T2 sequence (Q9QUQ5 whole entry): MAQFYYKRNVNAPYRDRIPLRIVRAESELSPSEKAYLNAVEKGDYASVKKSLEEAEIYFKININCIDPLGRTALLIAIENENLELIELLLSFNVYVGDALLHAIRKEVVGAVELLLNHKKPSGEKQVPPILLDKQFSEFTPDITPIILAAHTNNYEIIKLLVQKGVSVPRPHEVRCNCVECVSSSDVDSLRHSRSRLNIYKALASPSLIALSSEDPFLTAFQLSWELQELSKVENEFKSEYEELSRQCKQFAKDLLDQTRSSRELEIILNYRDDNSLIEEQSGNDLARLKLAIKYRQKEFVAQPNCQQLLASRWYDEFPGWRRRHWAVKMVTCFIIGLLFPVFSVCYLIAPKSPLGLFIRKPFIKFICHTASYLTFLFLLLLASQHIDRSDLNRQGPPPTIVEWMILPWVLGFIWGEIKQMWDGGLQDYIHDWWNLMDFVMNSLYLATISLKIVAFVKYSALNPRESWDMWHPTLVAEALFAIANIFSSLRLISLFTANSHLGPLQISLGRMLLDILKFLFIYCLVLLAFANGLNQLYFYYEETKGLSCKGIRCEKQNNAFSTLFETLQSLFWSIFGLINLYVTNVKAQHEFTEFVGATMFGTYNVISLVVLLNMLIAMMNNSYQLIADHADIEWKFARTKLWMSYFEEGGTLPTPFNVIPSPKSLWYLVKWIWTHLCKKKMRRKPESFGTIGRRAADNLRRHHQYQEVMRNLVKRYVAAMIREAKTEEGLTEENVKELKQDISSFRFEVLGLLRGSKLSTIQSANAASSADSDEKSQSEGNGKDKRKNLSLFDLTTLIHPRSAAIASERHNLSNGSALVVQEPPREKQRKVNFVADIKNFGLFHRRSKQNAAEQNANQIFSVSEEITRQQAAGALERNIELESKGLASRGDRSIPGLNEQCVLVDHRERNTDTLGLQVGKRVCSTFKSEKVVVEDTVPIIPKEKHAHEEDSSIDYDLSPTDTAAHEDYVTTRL

[10] = target: T3, Voltage-gated N-type calcium channel alpha-1B subunit/Amyloid beta A4 precursor protein-binding family A member 1 (Homo sapiens, UniProt Q00975+Q02410); type: protein assay
T3 sequence (Q00975 whole entry): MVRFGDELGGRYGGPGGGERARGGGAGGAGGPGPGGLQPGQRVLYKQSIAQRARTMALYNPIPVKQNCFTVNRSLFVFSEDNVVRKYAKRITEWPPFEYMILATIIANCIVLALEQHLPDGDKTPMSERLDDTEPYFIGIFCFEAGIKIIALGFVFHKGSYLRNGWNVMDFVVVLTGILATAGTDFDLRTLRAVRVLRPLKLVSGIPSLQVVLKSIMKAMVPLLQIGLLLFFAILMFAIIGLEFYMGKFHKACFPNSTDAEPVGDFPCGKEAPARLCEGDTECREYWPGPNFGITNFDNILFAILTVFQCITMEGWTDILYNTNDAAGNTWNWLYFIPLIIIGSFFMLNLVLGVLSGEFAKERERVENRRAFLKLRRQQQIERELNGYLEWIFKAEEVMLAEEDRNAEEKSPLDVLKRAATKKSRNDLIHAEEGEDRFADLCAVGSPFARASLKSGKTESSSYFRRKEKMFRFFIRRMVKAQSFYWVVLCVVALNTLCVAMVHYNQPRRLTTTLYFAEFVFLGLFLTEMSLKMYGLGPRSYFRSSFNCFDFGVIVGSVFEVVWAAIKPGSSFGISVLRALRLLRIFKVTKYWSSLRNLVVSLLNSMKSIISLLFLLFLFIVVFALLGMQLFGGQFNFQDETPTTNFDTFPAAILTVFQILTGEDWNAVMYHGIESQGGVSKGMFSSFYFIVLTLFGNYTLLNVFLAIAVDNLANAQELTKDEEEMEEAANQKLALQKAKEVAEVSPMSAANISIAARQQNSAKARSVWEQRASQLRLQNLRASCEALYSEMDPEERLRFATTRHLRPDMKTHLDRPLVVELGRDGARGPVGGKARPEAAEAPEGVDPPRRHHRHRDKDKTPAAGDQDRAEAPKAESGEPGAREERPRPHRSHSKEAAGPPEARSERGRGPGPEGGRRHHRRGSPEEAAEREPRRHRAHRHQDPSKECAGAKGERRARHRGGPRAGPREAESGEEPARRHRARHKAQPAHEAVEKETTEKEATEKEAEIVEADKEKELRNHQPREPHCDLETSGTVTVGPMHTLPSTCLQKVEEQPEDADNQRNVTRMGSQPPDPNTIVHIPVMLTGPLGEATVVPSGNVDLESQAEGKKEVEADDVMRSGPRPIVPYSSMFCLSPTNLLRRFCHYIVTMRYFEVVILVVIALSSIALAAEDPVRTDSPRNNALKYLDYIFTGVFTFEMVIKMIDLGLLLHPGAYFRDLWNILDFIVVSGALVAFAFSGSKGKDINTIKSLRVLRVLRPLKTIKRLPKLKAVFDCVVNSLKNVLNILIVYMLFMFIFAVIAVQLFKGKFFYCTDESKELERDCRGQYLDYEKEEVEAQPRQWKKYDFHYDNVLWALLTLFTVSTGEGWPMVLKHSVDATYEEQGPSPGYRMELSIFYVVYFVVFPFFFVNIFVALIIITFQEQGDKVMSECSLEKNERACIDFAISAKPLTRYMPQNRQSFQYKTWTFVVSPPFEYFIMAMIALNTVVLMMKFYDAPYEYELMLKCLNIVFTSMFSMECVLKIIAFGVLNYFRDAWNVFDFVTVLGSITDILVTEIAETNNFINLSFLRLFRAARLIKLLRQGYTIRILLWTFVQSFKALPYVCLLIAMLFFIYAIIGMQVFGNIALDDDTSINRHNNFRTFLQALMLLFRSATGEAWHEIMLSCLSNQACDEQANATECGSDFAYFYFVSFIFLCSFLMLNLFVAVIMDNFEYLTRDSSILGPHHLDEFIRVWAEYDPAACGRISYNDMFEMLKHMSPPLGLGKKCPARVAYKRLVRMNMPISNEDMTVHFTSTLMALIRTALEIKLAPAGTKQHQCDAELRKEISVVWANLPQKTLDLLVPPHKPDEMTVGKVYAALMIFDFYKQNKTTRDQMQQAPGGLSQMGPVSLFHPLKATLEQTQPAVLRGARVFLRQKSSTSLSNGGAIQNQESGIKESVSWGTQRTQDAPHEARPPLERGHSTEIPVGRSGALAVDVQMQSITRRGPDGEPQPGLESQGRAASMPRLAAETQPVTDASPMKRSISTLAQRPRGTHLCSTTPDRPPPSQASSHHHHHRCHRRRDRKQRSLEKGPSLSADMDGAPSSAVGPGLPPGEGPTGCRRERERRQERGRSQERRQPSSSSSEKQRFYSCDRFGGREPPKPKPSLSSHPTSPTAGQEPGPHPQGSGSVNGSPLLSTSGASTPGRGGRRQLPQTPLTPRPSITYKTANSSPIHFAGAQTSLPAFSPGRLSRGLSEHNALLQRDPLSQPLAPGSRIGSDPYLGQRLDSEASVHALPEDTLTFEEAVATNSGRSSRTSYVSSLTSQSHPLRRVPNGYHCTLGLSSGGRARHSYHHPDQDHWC
T3 sequence (Q02410 whole entry): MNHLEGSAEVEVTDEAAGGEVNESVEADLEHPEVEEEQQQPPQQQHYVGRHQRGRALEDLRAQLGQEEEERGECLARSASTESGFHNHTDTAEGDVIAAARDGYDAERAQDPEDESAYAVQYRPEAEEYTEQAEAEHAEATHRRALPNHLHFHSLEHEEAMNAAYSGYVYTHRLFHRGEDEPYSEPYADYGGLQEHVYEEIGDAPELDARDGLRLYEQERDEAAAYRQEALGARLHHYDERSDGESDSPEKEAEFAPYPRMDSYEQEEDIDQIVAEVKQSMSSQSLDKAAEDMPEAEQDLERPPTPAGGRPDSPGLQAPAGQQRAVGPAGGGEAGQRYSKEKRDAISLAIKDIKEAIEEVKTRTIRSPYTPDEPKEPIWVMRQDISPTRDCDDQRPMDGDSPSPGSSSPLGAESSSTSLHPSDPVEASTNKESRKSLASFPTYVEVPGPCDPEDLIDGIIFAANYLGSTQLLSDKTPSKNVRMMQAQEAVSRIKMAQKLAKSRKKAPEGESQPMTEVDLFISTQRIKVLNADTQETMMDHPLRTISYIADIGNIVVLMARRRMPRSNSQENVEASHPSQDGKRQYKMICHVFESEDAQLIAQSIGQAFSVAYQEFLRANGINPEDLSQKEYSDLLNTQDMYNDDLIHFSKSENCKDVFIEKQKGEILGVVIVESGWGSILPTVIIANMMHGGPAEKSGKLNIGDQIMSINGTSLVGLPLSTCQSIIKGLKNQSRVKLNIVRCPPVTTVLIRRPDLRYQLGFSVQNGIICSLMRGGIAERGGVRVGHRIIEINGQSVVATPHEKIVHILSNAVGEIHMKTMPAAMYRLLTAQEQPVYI

[11] = HeLa cell cytotoxicity, dose response, cytotoxicity control for MgcRacGAP inhibitor project (AID 624300); type: functional
[12] = target: T3, Voltage-gated N-type calcium channel alpha-1B subunit/Amyloid beta A4 precursor protein-binding family A member 1; type: protein assay; remark: listed apart in the source
[13] = target: T4, Rac GTPase-activating protein 1 (Homo sapiens, UniProt Q9H0H5); assay: MgcRacGAP GTPase-activating activity inhibitors, confirmation, biochemical, ADP Hunter fluorescence, primary and confirmatory (AID 624330); type: functional
T4 sequence (Q9H0H5 whole entry): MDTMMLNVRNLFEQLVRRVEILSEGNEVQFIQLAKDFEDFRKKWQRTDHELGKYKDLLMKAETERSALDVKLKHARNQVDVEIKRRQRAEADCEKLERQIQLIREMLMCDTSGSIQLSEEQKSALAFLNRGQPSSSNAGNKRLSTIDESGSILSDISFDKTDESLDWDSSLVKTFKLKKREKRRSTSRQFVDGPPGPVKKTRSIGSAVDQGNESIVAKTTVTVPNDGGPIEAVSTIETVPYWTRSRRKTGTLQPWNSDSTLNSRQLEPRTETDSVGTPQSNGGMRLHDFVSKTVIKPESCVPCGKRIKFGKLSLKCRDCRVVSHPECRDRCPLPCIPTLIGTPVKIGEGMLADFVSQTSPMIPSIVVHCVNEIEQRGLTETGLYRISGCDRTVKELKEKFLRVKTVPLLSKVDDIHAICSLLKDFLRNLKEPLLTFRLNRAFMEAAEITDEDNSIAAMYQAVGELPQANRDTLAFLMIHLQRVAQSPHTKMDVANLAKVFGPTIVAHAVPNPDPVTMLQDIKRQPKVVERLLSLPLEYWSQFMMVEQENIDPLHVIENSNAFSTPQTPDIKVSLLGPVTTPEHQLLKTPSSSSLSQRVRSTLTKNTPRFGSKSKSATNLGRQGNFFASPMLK

[14] = Luminescence Cell-Based Dose Confirmation HTS to Identify Inhibitors of Platelet Dense Granule Release. [Related pubchem assays: 1663 (Primary HTS), 1678 (Summary of Project)]; type: functional
[15] = target: T5, Eukaryotic translation initiation factor 2-alpha kinase 3 (Homo sapiens, UniProt Q9NZJ5); assay: Dose response cell-based high-throughput screening assay to measure PERK inhibition. [Related pubchem assays: 1416 ]; type: functional
T5 sequence (Q9NZJ5 whole entry): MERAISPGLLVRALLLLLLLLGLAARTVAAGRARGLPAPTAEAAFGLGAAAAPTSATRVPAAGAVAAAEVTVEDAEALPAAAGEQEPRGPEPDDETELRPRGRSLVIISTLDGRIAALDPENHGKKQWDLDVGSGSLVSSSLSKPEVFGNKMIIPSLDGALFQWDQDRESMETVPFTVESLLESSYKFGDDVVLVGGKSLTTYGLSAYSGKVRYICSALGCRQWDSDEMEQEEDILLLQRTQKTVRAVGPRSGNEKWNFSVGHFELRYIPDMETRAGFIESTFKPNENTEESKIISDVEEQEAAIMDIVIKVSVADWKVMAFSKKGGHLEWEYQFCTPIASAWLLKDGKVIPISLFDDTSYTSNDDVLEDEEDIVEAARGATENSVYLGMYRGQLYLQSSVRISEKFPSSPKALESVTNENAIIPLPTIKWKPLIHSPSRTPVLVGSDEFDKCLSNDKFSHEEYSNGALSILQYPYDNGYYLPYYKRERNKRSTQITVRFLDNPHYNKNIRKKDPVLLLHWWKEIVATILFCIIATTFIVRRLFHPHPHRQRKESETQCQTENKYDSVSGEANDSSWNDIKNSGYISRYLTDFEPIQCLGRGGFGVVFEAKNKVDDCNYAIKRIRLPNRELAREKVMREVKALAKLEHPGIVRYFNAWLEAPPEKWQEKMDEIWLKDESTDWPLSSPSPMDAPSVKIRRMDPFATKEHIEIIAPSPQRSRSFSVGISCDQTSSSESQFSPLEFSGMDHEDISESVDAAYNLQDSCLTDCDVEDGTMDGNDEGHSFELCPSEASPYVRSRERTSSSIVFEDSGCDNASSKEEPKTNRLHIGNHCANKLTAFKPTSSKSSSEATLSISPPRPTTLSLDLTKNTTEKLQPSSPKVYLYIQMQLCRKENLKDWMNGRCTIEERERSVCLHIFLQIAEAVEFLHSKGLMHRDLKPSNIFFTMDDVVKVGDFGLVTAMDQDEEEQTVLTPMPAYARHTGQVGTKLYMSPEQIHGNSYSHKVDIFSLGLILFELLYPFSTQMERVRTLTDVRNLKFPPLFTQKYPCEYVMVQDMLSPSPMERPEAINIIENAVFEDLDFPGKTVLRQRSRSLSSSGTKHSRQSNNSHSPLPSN

[16] = target: T6, High affinity choline transporter 1 (Homo sapiens, UniProt Q9GZV3); assay: CHT inhibitors, dose response, cell-based, 10-point CRC, membrane potential dye (AID 588401); type: functional;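 further: membrane potential dye fluorescence of choline-evoked depolarization via CHT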
T6 sequence (Q9GZV3 whole entry): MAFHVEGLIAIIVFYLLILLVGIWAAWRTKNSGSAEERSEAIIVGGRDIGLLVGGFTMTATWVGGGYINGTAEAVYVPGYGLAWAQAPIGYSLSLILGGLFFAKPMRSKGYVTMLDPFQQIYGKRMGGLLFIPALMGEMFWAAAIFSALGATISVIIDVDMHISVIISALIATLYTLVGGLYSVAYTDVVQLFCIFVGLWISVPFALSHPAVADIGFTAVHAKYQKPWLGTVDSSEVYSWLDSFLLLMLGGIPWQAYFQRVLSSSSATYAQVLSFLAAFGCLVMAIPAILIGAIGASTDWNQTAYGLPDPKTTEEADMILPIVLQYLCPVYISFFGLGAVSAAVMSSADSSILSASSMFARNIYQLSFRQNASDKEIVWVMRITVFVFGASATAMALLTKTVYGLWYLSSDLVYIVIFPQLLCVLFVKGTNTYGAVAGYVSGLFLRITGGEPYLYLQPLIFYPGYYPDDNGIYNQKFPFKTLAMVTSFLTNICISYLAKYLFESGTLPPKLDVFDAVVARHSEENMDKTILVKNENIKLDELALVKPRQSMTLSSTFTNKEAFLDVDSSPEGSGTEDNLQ

[17] = target: T5, Eukaryotic translation initiation factor 2-alpha kinase 3; assay: Counterscreen assay for PERK inhibitors: Dose response cell-based high throughput screening assay to measure inhibition of PERK at 6 hours. [Related pubchem assays: 1522, 1416 ]; type: functional
[18] = target: T6, High affinity choline transporter 1; assay: CHT inhibitors, dose response, cell-based, 5-point CRC, membrane potential dye (AID 504840); type: functional
[19] = target: Luciferin 4-monooxygenase (Photinus pyralis, UniProt P08659); assay: firefly luciferase enzyme inhibitors, dose response, biochemical, luminescence (AID 1891)
Luciferin 4-monooxygenase, sequence (P08659 whole entry): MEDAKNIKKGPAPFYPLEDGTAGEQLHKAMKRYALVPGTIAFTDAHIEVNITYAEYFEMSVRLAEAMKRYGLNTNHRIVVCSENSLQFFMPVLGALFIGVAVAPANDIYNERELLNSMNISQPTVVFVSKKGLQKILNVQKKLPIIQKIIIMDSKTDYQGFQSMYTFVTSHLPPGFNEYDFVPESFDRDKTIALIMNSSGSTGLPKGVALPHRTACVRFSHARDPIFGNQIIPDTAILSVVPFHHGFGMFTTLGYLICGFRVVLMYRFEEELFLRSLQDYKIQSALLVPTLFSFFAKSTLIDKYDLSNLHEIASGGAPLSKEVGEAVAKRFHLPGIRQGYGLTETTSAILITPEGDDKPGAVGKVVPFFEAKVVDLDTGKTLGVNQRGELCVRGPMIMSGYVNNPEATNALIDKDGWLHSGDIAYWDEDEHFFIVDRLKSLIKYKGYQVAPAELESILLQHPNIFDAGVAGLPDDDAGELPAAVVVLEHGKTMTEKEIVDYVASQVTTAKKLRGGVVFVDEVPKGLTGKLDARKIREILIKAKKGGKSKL

[20] = HEp-2 cell cytotoxicity, dose response, cytotoxicity control for RSV inhibitor project, HTS (AID 2410); type: functional; details: human respiratory syncytial virus

Structure (SMILES) | EC50 [2] | IC50 (HEK293 [3]) | IC50 (HEK293 [4]) | IC50 (HEK293 [5]) | IC50 (HEK293 [6]) | EC50 (HEK293 [7]) | IC50 (H9c2) | EC50 [9] | other results
COc1cc(Br)cc(/C=C/c2ccc3cccc(O)c3n2)c1O | > 20 µM (inactive) | > 20 µM (inactive) | 8.18 µM (active) | 6.96 µM (inactive) | > 20 µM (inactive) | 5.78 µM (active) |  |  | AC50 [1]: 1.44 µM (active)
COc1ccc2cc3cc(C(=O)NCCc4ccc(OC)c(OC)c4)oc3nc2c1 | 7.83 µM (active) | > 20 µM (inactive) | 4.8 µM (active) | 5.18 µM (active) | 18.9 µM (active) | 9.01 µM (active) | > 79 µM (inactive) |  | AC50 [8]: 16.2 µM (active)
CCN1CCN(c2ccc(S(=O)(=O)N3CCCCC3)cc2NC(=O)c2cccc(C)c2[N+](=O)[O-])CC1 |  |  |  |  |  |  |  | 2.99 µM (active) | 
COc1cc(/C=C/c2nc3ccccc3c(=O)n2-c2ccccc2O)ccc1O |  |  |  |  |  |  | 9.09 µM (active) |  | IC50 [10]: > 50 µM (inactive); CC50 [11]: 94 µM (active); IC50 [12]: > 56.8 µM (not active); IC50 [13]: 40.6 µM (active)
Nc1nc(Cl)nc2c1ncn2[C@@H]1O[C@H](CO)[C@@H](O)[C@H]1O |  |  |  |  |  |  |  |  | EC50 [14]: < 0.701 µM (active); EC50 [15]: > 55.7 µM (not active); IC50 [16]: 0.336 µM (active); EC50 [17]: > 55.7 µM (not active); IC50 [18]: 0.74 µM (active); EC50 [19]: > 112 µM (not active)
CC(C)(C)c1cc(O)c(C(C)(C)C)cc1O |  |  |  |  |  |  |  | 0.376 µM (active) | CC50 [20]: > 50 µM (active); IC50 (cells): 37.2 µM (active)
